Values quoted from earlier work, collected in paper PMC11261124 (Poultry Science, 2024).

How the values were obtained:
HSV-2 = conditions: read-out: IC50 against HSV-2

COc1cn2c3ccccc3c3ccnc(c1=O)c32 [Drymaritin]
anti-HIV activity IC50 (HIV): 0.699 µg/mL

COc1ccc2c(c1)[nH]c1c(C)nccc12 [Harmine]
IC50 (HSV-2): 1470 nM
